Assay results reported in patent US11596716B2, “Compounds and matrices for use in bone growth and repair” (Human BioMolecular Research Institute, priority 2013, dated 2023).
Values joined by “and” are separate entries in the source; they are usually repeats but may differ in a detail not shown here. Identical values can stand only once. Blank lines part the entries; values can stand above or below the compound they belong to.

Key:
[1] = test system: cells released from demineralized allogeneic bone chips; assay: Allograft-derived cells cultured with compound and TCP matrix; format: cell-based; conditions: 500 nM, TCP matrix 5 mg/mL, 8 days
Description: Demineralized allogeneic bone chips were thawed at 37° C. quickly with gentle agitation, washed with Dulbecco's PBS (DPBS) and centrifuged at 600×g for 5 min at room temperature. The material was digested with a collagenase and the mixture was filtered through a 100 µm cell strainer and the remaining bone fragments were rinsed with DPBS. The released cells were centrifuged at 1,200× rpm for 5 min at room temperature, resuspended and plated in 10 mL α-MEM media plus 20% FBS plus 1×Glutmax. After three days at 37° C. and 5% CO2, the TCP matrix (5 mg/mL) was added followed by compound 1 (500 nM) (or other compounds of Formula II, IV or VI) and the cell culture media was replaced every two days with fresh media-containing compound for 8 days. Cells were harvested after 8 days for determination of ALP activity, osteogenic mRNA biomarkers (i.e., VDR and collagen I, and cell proliferation. Cell proliferation increased 2.5-fold. VDR and collagen/mRNA expression increased 4.5-fold and 2.2-fold, respectively. Similar to isolated hMSCs in the presence of matrix, allograft-derived cells also respond to the presence of compounds and matrix to afford osteogenesis. The cells can be used in implantation as described in Examples 19 and 20.

Wnt transcription = assay: WNT transcriptional reporter assay (Super(8×)TOPflash luciferase, HEK293T cells); format: cell-based; conditions: Homo sapiens, HEK-293T, Wnt3A-expressing vector, 20 hrs, relative to cells treated with DMSO alone, read-out: Wnt transcription potency
Text: Commercially available Super(8×)TOPflash vector driven by a (7×) TCF-firefly luciferase response element was transiently transfected into HEK293T cells, together with a TK-driven Renilla luciferase plasmid as an internal control to normalize the luminescence signal and a Wnt3A-expressing vector as the source of pathway activation. HEK293T cells were transfected with plasmids in DMEM plus 10% fetal bovine serum (FBS) for 8 hr, replated to 96-well plates in DMEM plus 10% FBS followed by treatment with compounds (1.6 nM to 5 M) (DMSO final concentration is 0.5%) for 20 hrs. Firefly and Renilla luciferase activities were measured and normalized by the Renilla luciferase values.

Solubility in water = format: physicochemical
[2] = Prodrug hydrolysis in phosphate buffer determined by HPLC; format: physicochemical
Description: 3 provided 54 (described in Example 3) through prodrug hydrolysis as determined by HPLC.
Within 5 minutes, the hydrolysis of 3 produced compound 84 (described in Example 3) that is the mono hydrolysis product of the bis(amino acid) pro-drug 3. Within 15 minutes, compound 54 that is the fully hydrolyzed product from 3 (and 84) was prominent in solution. By 77 minutes, most of 3 was hydrolyzed while compound 84 and compound 54 persisted.

hMSCs = assay: qPCR of target gene mRNA expression in hMSCs; format: cell-based, human
Description: qPCR detection of osteogenic markers: Cells were cultured with compound in the presence or absence of matrix as described above, but using 96-well plate format. Total RNA was extracted from cells (as above) using Trizol. cDNA was made using 750 ng of total RNA with Bio-Rad iscript kit and was diluted 20-fold before being used for qPCR. qPCR was conducted under the following conditions: 95° C., 2 min; 95° C., 10 s and 60° C., 45 s for 40 cycles; 60° C. for 71 cycles for melt curve. qPCR results were analyzed by the ΔΔCt method. 18s rRNA was used as an internal standard. This protocol was applied to hMSC and E15 cells.
Runx2 and BMP-2 are osteogenic markers; Axin2, Wnt3a, and Sox 9 are Wnt-inducible gene markers.
The assay for mRNA expression followed the same procedure with hMSCs as described for C2C12 cells (Example 7).

[3] = compound 500 nM, matrix 5 mg/mL, 3 days

EC50 (Wnt transcription): < 15 nM
Structure (SMILES): CC(=O)N1c2ccc(C)cc2[C@H](Nc2ccc(C)cc2)C[C@@H]1C (relative stereo) [Compound 1, cis-1-acetyl-2,6-dimethyl-N-(p-methylphenyl)-1,2,3,4-tetrahydroquinolin-4-amine]
Cell proliferation increase [1]: 2.5 fold | VDR mRNA expression increase [1]: 4.5 fold | collagen/mRNA expression increase [1]: 2.2 fold

Structure (SMILES): CC(C)[C@H](N)C(=O)Oc1ccc(C=CC(=O)C=C(O)C=Cc2ccc(OC(=O)[C@@H](N)C(C)C)cc2)cc1 [Compound 3, (2S,2′S)—O,O′-(3-hydroxy-5-oxohepta-1,3,6-triene-1,7-diyl)bis(4,1-phenylene) bis(2-amino-3-methylbutanoate)]
solubility in water (Solubility in water): greater than 10 mg/mL | persistence of compound ([2]; pH 6.5 PBS): ≥ 77 min | time until compound 54 (fully hydrolyzed product) was prominent in solution ([2]; pH 6.5 PBS): ≤ 15 min | time until hydrolysis produced compound 84 (mono hydrolysis product) ([2]; pH 6.5 PBS): ≤ 5 min | persistence for over an hour in pH 7.5 buffer ([2]; pH 7.5 buffer, versus pH 6.5 phosphate buffer (10 mM)): not in pH 7.5 buffer | Collagen 1 mRNA Fold-Change +/− SD, −matrix (hMSCs; 500 nM, 8 days): 1.5 fold and 1.5 ± 0.2 fold | Osteocalcin mRNA Fold-Change +/− SD, −matrix (hMSCs; 500 nM, 8 days): 0.5 ± 0.1 fold | VDR mRNA Fold-Change +/− SD, −matrix (hMSCs; 500 nM, 8 days): 5.0 ± 0.5 fold | decrease of Sox9 expression (hMSCs; 500 nM, matrix 5 mg/mL, 3 days): 40% | decrease of Wnt repressor gene Axin2 expression (hMSCs; 500 nM, matrix 5 mg/mL, 3 days): 80% | ALP mRNA Fold-Change +/− SD, +matrix (hMSCs; 500 nM, matrix 5 mg/mL, 8 days): 55 fold and 55.0 ± 5.0 fold | Collagen 1 mRNA Fold-Change +/− SD, +matrix (hMSCs; 500 nM, matrix 5 mg/mL, 8 days): 1.8 ± 0.2 fold | Osteocalcin mRNA Fold-Change +/− SD, +matrix (hMSCs; 500 nM, matrix 5 mg/mL, 8 days): 5.2 ± 0.5 fold | VDR mRNA Fold-Change +/− SD, +matrix (hMSCs; 500 nM, matrix 5 mg/mL, 8 days): 45 fold and 45.0 ± 5.0 fold | BMP-2 mRNA fold-changes +/− SD, −matrix (hMSCs; compound 500 nM, 3 days): 2.6 ± 0.2 fold | Runx2 mRNA fold-changes +/− SD, −matrix (hMSCs; compound 500 nM, 3 days): 101.3 ± 10.0 fold | Sox9 mRNA fold-changes +/− SD, −matrix (hMSCs; compound 500 nM, 3 days): 0.1 ± 0.01 fold | Wnt3a mRNA fold-changes +/− SD, −matrix (hMSCs; compound 500 nM, 3 days): 1 ± 0.1 fold | Wnt5a mRNA fold-changes +/− SD, −matrix (hMSCs; compound 500 nM, 3 days): 1 ± 0.1 fold | Axin2 mRNA fold-changes +/− SD, +matrix (hMSCs; [3]): 0.2 ± 0.02 fold | BMP-2 mRNA fold-changes +/− SD, +matrix (hMSCs; [3]): 7.5 fold and 7.5 ± 0.7 fold | Runx2 mRNA fold-changes +/− SD, +matrix (hMSCs; [3]): 8.2 fold and 8.2 ± 0.8 fold | Sox9 mRNA fold-changes +/− SD, +matrix (hMSCs; [3]): 0.6 ± 0.1 fold | Wnt3a mRNA fold-changes +/− SD, +matrix (hMSCs; [3]): 82.4 fold and 82.4 ± 8.0 fold | Wnt5a mRNA fold-changes +/− SD, +matrix (hMSCs; [3]): 6.3 fold and 6.3 ± 0.6 fold
